Measured values reported in PubChem BioAssay AID330 (DTP/NCI, 2004).
Several values for one entry are separate records, joined by “and”; a condition that tells them apart may be missing. Equal entries are not always repeated. Inconclusive results and toxic doses are left out.

Tested on: P388 leukemia ip, CD2F1 mice, survival T/C
Assay: NCI In Vivo Anticancer Drug Screen. Data for tumor model P388 Leukemia (intraperitoneal) in CD2F1 (CDF1) mice
Details: endpoint: median survival time, higher = longer survival
Procedure, shortened: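 Mice carrying the transplanted tumor received test compound or vehicle. Survival was recorded in each group, and the value is the treated-group measurement divided by that of the vehicle-treated control group.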

[1] = dose: 25.0 mg/kg/injection, schedule: Q01DX009 (ip), vehicle: saline with Tween-80
[2] = dose: 25.0 mg/kg/injection, schedule: Q04DX003 (ip), vehicle: saline with Tween-80
[3] = dose: 100.0 mg/kg/injection, schedule: Q04DX003 (ip), vehicle: saline with Tween-80
[4] = dose: 200.0 mg/kg/injection, schedule: Q04DX003 (ip), vehicle: saline with Tween-80
[5] = dose: 400.0 mg/kg/injection, schedule: Q04DX003 (ip), vehicle: saline with Tween-80
[6] = dose: 50.0 mg/kg/injection, schedule: Q01DX005 (ip), vehicle: saline
[7] = dose: 100.0 mg/kg/injection, schedule: Q01DX005 (ip), vehicle: saline
[8] = dose: 200.0 mg/kg/injection, schedule: Q01DX005 (ip), vehicle: saline
[9] = dose: 50.0 mg/kg/injection, schedule: Q01DX005 (ip), vehicle: saline with Tween-80
[10] = dose: 100.0 mg/kg/injection, schedule: Q01DX005 (ip), vehicle: saline with Tween-80

For `COc1ccc(/C=C/C2C(C#N)(C#N)C(OC)(OC)C2(OC)OC)cc1` (stereo not drawn), the T/C (dose: 60.0 mg/kg/injection, schedule: Q01DX005 (ip), vehicle: Klucel (hydroxypropylcellulose) (HPC)) was 101 % of control, the T/C (dose: 120.0 mg/kg/injection, schedule: Q01DX005 (ip), vehicle: Klucel (hydroxypropylcellulose) (HPC)) was 102 % of control and the T/C (dose: 240.0 mg/kg/injection, schedule: Q01DX005 (ip), vehicle: Klucel (hydroxypropylcellulose) (HPC)) was 98 % of control.
With `O=C1NCN(c2ccccc2)C12CCNCC2` the T/C (dose: 25.0 mg/kg/injection, schedule: Q04DX003 (ip), vehicle: saline sonified) was 109 % of control, the T/C (dose: 50.0 mg/kg/injection, schedule: Q04DX003 (ip), vehicle: saline sonified) was 109 % of control and the T/C (dose: 100.0 mg/kg/injection, schedule: Q04DX003 (ip), vehicle: saline sonified) was 95 % of control.
With `COc1ccc(/C(C#N)=C\c2ccco2)cc1` the T/C (dose: 50.0 mg/kg/injection, schedule: Q01DX009 (ip), vehicle: saline) was 111 % of control, the T/C (dose: 100.0 mg/kg/injection, schedule: Q01DX009 (ip), vehicle: saline) was 110 % of control and the T/C (dose: 200.0 mg/kg/injection, schedule: Q01DX009 (ip), vehicle: saline) was 101 % of control.
For `O=S(=O)(Nc1nccs1)c1ccc(Nc2c3ccccc3nc3ncccc23)cc1`, the T/C (dose: 60.0 mg/kg/injection, schedule: Q01DX005 (ip), vehicle: saline with Tween-80) was 93 % of control and the T/C (dose: 120.0 mg/kg/injection, schedule: Q01DX005 (ip), vehicle: saline with Tween-80) was 89 % of control.
`O=c1c(Cl)cc(Cl)cn1S(=O)(=O)c1ccc([N+](=O)[O-])cc1` was tested, and the T/C [1] was 106 % of control, the T/C (dose: 50.0 mg/kg/injection, schedule: Q01DX009 (ip), vehicle: saline with Tween-80) was 105 % of control and the T/C (dose: 100.0 mg/kg/injection, schedule: Q01DX009 (ip), vehicle: saline with Tween-80) was 100 % of control and 104 % of control. The T/C (dose: 200.0 mg/kg/injection, schedule: Q01DX009 (ip), vehicle: saline with Tween-80) was 104 % of control and 89 % of control and the T/C (dose: 400.0 mg/kg/injection, schedule: Q01DX009 (ip), vehicle: saline with Tween-80) was 89 % of control.
With `COc1ccc(Cc2ccc(OC)c(OC)c2)cc1OC` the T/C [2] was 99 % of control, the T/C (dose: 50.0 mg/kg/injection, schedule: Q04DX003 (ip), vehicle: saline with Tween-80) was 99 % of control and the T/C [3] was 113 % of control. The T/C [4] was 109 % of control and the T/C [5] was 120 % of control.
With `OCCN(CCO)Cc1nc2cc(Cl)c(Cl)cc2[nH]1` the T/C [6] was 97 % of control, the T/C [7] was 112 % of control and the T/C [8] was 90 % of control.
In the case of `CCCOC(=O)C1C2CCC(O2)C1C(=O)O` (stereo not drawn), the T/C (dose: 6.25 mg/kg/injection, schedule: Q01DX005 (ip), vehicle: saline) is reported as 106 % of control and the T/C (dose: 12.5 mg/kg/injection, schedule: Q01DX005 (ip), vehicle: saline) is reported as 103 % of control.
For `CN1CCN(CC(O)COc2c3ccccc3nc3ccccc23)CC1` (stereo not drawn), the T/C [9] was 104 % of control and the T/C [10] was 95 % of control.
`CCOC(=O)c1cc2c(=O)c3c(ccc4ccccc43)oc2n(C)c1=O` was tested, and the T/C (dose: 12.5 mg/kg/injection, schedule: Q01DX005 (ip), vehicle: saline with Tween-80) was 96 % of control, the T/C (dose: 25.0 mg/kg/injection, schedule: Q01DX005 (ip), vehicle: saline with Tween-80) was 94 % of control and the T/C [9] was 88 % of control.
In the case of `O=C(COc1ccc(Cl)cc1Cl)NC(O)C(Cl)(Cl)Cl` (stereo not drawn), the T/C [3] is reported as 108 % of control, the T/C [4] is reported as 116 % of control and the T/C [5] is reported as 100 % of control.
In the case of `CC(CN(C)C)OC(=O)c1ccc(Cl)cc1Cl` (stereo not drawn), the T/C [6] is reported as 100 % of control, the T/C [7] is reported as 98 % of control and the T/C [8] is reported as 100 % of control.
In the case of `N=C(N)SCCC(=O)NCNC(=O)CCSC(=N)N`, the T/C (dose: 50.0 mg/kg/injection, schedule: Q01DX005 (ip), vehicle: suspension in saline) is reported as 98 % of control and the T/C (dose: 100.0 mg/kg/injection, schedule: Q01DX005 (ip), vehicle: suspension in saline) is reported as 99 % of control.
In the case of `CS/C(Nc1ccccc1)=C1\CCCn2c1nc1ccccc1c2=O`, the T/C (dose: 25.0 mg/kg/injection, schedule: Q01DX001 (ip), vehicle: saline with Tween-80) is reported as 105 % of control, the T/C (dose: 50.0 mg/kg/injection, schedule: Q01DX001 (ip), vehicle: saline with Tween-80) is reported as 99 % of control and the T/C (dose: 100.0 mg/kg/injection, schedule: Q01DX001 (ip), vehicle: saline with Tween-80) is reported as 90 % of control and 91 % of control.
`Nc1ccccc1N=Cc1c(O)c2ccccc2oc1=O` was tested, and the T/C [9] was 93 % of control and the T/C [10] was 98 % of control.
`Cn1c(-c2ccc(Cl)cc2)cc2cc(CN3C(=O)c4ccccc4C3=O)ccc21` was tested, and the T/C (dose: 25.0 mg/kg/injection, schedule: Q04DX003 (ip), vehicle: Klucel (hydroxypropylcellulose) (HPC)) was 95 % of control, the T/C (dose: 50.0 mg/kg/injection, schedule: Q04DX003 (ip), vehicle: Klucel (hydroxypropylcellulose) (HPC)) was 96 % of control and the T/C (dose: 100.0 mg/kg/injection, schedule: Q04DX003 (ip), vehicle: Klucel (hydroxypropylcellulose) (HPC)) was 87 % of control and 88 % of control. For the same compound, the T/C (dose: 400.0 mg/kg/injection, schedule: Q04DX003 (ip), vehicle: Klucel (hydroxypropylcellulose) (HPC)) was 87 % of control.
With `CCC1CC(C)C(O)/C=C/C=C/CC(C)OC(=O)CC(O)C(OC)C1OC1CC(C)(O)C(O)C(C)O1` (stereo not drawn) the T/C (dose: 10.5 mg/kg/injection, schedule: Q01DX005 (ip), vehicle: Klucel (hydroxypropylcellulose) (HPC)) was 112 % of control, the T/C (dose: 21.0 mg/kg/injection, schedule: Q01DX005 (ip), vehicle: Klucel (hydroxypropylcellulose) (HPC)) was 102 % of control and the T/C (dose: 42.0 mg/kg/injection, schedule: Q01DX005 (ip), vehicle: Klucel (hydroxypropylcellulose) (HPC)) was 105 % of control. For the same compound, the T/C (dose: 84.0 mg/kg/injection, schedule: Q01DX005 (ip), vehicle: Klucel (hydroxypropylcellulose) (HPC)) was 102 % of control.
For `CC(=O)OC1CC(n2cc(C)c(=O)[nH]c2=O)OC1COP(=O)(N1CC1(C)C)N1CC1(C)C` (stereo not drawn), the T/C [2] was 110 % of control and the T/C [4] was 159 % of control.
With `CCCCNC(=O)C(C)OC(=O)C(CC)CCCC` (stereo not drawn) the T/C (dose: 25.0 mg/kg/injection, schedule: Q01DX005 (ip), vehicle: Klucel (hydroxypropylcellulose) (HPC)) was 105 % of control, the T/C (dose: 50.0 mg/kg/injection, schedule: Q01DX005 (ip), vehicle: Klucel (hydroxypropylcellulose) (HPC)) was 100 % of control and the T/C (dose: 100.0 mg/kg/injection, schedule: Q01DX005 (ip), vehicle: Klucel (hydroxypropylcellulose) (HPC)) was 102 % of control. For the same compound, the T/C (dose: 200.0 mg/kg/injection, schedule: Q01DX005 (ip), vehicle: Klucel (hydroxypropylcellulose) (HPC)) was 105 % of control.
`N#Cc1n[nH]c2nc(=S)sc(N)c12` was tested, and the T/C (dose: 100.0 mg/kg/injection, schedule: Q04DX002 (ip), vehicle: water) was 103 % of control, the T/C (dose: 200.0 mg/kg/injection, schedule: Q04DX002 (ip), vehicle: water) was 90 % of control and the T/C (dose: 400.0 mg/kg/injection, schedule: Q04DX002 (ip), vehicle: water) was 97 % of control.
With `[Br][Sn]([CH2][Sn]([Br])([c]1ccccc1)[c]1ccccc1)([c]1ccccc1)[c]1ccccc1` the T/C (dose: 6.25 mg/kg/injection, schedule: Q01DX005 (ip), vehicle: Klucel (hydroxypropylcellulose) (HPC)) was 110 % of control.
In the case of `O=C1CC(c2ccc(Cl)cc2)C(c2ccc(Cl)cc2)C1C(=O)OC1CCCCC1` (stereo not drawn), the T/C (dose: 1.56 mg/kg/injection, schedule: Q01DX001 (ip), vehicle: Klucel (hydroxypropylcellulose) (HPC)) is reported as 110 % of control, the T/C (dose: 3.13 mg/kg/injection, schedule: Q01DX001 (ip), vehicle: Klucel (hydroxypropylcellulose) (HPC)) is reported as 107 % of control and the T/C (dose: 6.25 mg/kg/injection, schedule: Q01DX001 (ip), vehicle: Klucel (hydroxypropylcellulose) (HPC)) is reported as 107 % of control and 89 % of control.
For `O=C(NC(=O)c1c(F)cccc1F)Nc1nc2ccccc2s1`, the T/C (dose: 6.25 mg/kg/injection, schedule: Q01DX009 (ip), vehicle: saline with Tween-80) was 113 % of control, the T/C (dose: 12.5 mg/kg/injection, schedule: Q01DX009 (ip), vehicle: saline with Tween-80) was 100 % of control and the T/C [1] was 105 % of control.
